Read-outs that look alike come from different tables or passages of the source.
What was measured:
[1] = system: MYB mRNA; test: RT-qPCR splicing assay, MYB canonical (CJ) and alternative (AJ) junction mRNA; type: cell-based; settings: Homo sapiens; for IC50: read-out: MYB CJ IC50; for AC50: increase in alternative junction mRNA, read-out: MYB AJ AC50
Protocol: Compounds described herein were used to modulate RNA transcript abundance in cells. The expression of a target mRNA was measured by detecting the formation of an exon-exon junction in the canonical transcript (CJ). A compound mediated exon-inclusion event was detected by observing an increase in formation of a new junction with an alternative exon (AJ). Real-time qPCR assays were used to detect these splicing switches and interrogate the potency of various compounds towards different target genes. A high-throughput real time quantitative PCR (RT-qPCR) assay was developed to measure these two isoforms of the mRNA (CJ and AJ) for exemplary genes, such as HTT, SMN2, and MYB, together with a control housekeeping gene, GAPDH or GUSB or PPIA, used for normalization. Briefly, the A673 or K562 cell line was treated with various compounds described herein (e.g., compounds of Formula (I)). After treatment, the levels of the HTT, MYB, or SMN2 mRNA targets were determined from each sample of cell lysate by cDNA synthesis followed by qPCR.
• Cells-to-CT 1-step kit: ThermoFisher A25602, Cells-to-CT lysis reagent: ThermoFisher 4391851C, TaqMan™ Fast Virus 1-Step Master Mix: ThermoFisher 4444436 • GAPDH: VIC-PL, ThermoFisher 4326317E (Assay: Hs99999905_m1)—used for K562/suspension cell lines • GUSB: VIC-PL, ThermoFisher 4326320E (Assay: Hs99999908_m1)—used for K562/suspension cell lines • PPIA: VIC-PL, ThermoFisher 4326316E (Assay: Hs99999904_m1)—used for A673/adherent cell lines
The A673 cell line was cultured in DMEM with 10% FBS. Cells were diluted with full growth media and plated in a 96-well plate (15,000 cells in 100 ul media per well). The plate was incubated at 37° C. with 5% CO2 for 24 hours to allow cells to adhere. An 11-point 3-fold serial dilution of the compounds was made in DMSO then diluted in media in an intermediate plate. Compounds were transferred from the intermediate plate to the cell plate with the top dose at a final concentration of 10 uM in the well. Final DMSO concentration was kept at or below 0.25%. The cell plate was returned to the incubator at 37° C. with 5% CO2 for an additional 24 hours.
The K562 cell line was cultured in IMDM with 10% FBS. For K562, cells were diluted with full growth media and plated in either a 96-well plate (50,000 cells in 50 uL media per well) or a 384-well plate (8,000-40,000 cells in 45 uL media per well). An 11-point 3-fold serial dilution of the compounds were made in DMSO then diluted in media in an intermediate plate. Compound was transferred from the intermediate plate to the cell plate with the top dose at a final concentration of 10 uM in the well. Final DMSO concentration was kept at or below 0.25%. Final volume was 100 uL for 96-well plate and 50 uL for 384-well plate. The cell plate was then placed in an incubator at 37° C. with 5% CO2 for 24 hours.
The cells were then gently washed with 50 uL-100 uL cold PBS before proceeding to addition of lysis buffer. 30 uL-50 μL of room temperature lysis buffer with DNAse I (and optionally RNAsin) was added to each well. Cells were shaken/mixed thoroughly at room temperature for 5-10 minutes for lysis to take place and then 3 uL-5 μL of room temperature stop solution was added and wells were shaken/mixed again. After 2-5 minutes, the cell lysate plate was transferred to ice for RT-qPCR reaction setup. The lysates could also be frozen at −80° C. for later use.
In some cases, a direct lysis buffer was used. An appropriate volume of 3× lysis buffer (10 mM Tris, 150 mM NaCl, 1.5%-2.5% Igepal and 0.1-1 U/uL RNAsin, pH 7.4) was directly added to either K562 or A673 cells in media and mixed by pipetting 3 times. The plates were then incubated at room temperature with shaking/rocking for 20-50 minutes to allow for lysis to take place. After this time, the cell lysate plate was transferred to ice to set up for the RT-qPCR reactions. The lysates could also be frozen at −80° C. for later use. […]

[2] = system: HiBiT-tagged HTT protein in K562 cells; test: HiBit protein abundance assay, HTT; type: cell-based, human; settings: K562 HiBiT-modified cells, 24 hours, luminescence
Protocol: Compounds described herein were used to screen for effects on quantitative protein abundance using a HiBit assay system (Promega). Quantitative protein abundance was determined by measuring the protein levels of HiBit-tagged protein targets expressed in cell culture via luminescence using the Nano-Glo HiBiT Lytic Detection System, which uses a split complementation assay format to reconstitute NanoBiT enzyme to generate a luminescent signal. A protein abundance assay was developed such that endogenous protein targets could be modified with the HiBiT peptide tag and their abundance could be assessed after compound treatment. Briefly, K562 cell lines containing a HiBiT-modification were treated with various compounds described herein (e.g., compounds of Formulas (I), (II), or (III)). After treatment for 24 hours, the protein abundance of a specific target was determined by measuring luminescence. • Promega Nano-Glo HiBiT Lytic Detection System (cat #N3030) • Corning 384-well TC-treated microplates (cat #3570) • Synthego Engineered Cells Knock-In Clones [table] Cells were maintained in IMDM with 10% FBS. Before the assay, cells were diluted with phenolphthalein-free growth media (IMDM+1% FBS media) and were seeded in a 384-well plate at a density of 10000 cells/well (for each cell line listed in Table 6). Each compound was prepared as a 10-point 3-fold serial dilution in DMSO with the top dose at a final concentration of 10 μM in the well. Unmodified K562 cells were added at the previously specified density with DMSO to serve as an assay baseline and positive control (PC) and DMSO only with the respective modified cell lines was added to the negative control (NC) columns. Final DMSO concentration was kept at or below 0.25%. Treated cell plates were placed in an incubator at 37° C. with 5% CO2 for 24 hours. After 24 hours, 25 μL of Complete HiBit Lytic reagent was added to each well at room temperature (e.g. one plate requiring 10 mL Lytic Buffer, 100 μL LgBiT Protein, 200 μL Lytic Substrate), shaken for 5 minutes at 600 RPM, then left to sit for 10 minutes for signal to stabilize before reading on a Spark Cyto plate reader (Tecan) with a 500 ms measurement time. To determine compound effects on protein abundance of each target in Table 6, the percent response for each respective cell line was calculated at each compound concentration as follows: For the normalized response at each concentration, a four-parameter logistical regression was fit to the data and the response was interpolated at the 50% value to determine a concentration for protein abundance at 50% (IC50) the untreated control.

[3] = decrease in CJ mRNA levels, larger panel of genes, Table 3
[4] = decrease in canonical junction mRNA, A673 or K562 cells, 24 hours treatment, Table 2
[5] = A673 or K562 cells, 24 hours treatment, Table 2

Compound | IC50 [1, 3] | IC50 [1, 4] | AC50 [1, 5] | IC50 [2]
Cc1cn2nc(-c3cc(F)c4nn(C5CCN(CC6CC6)CC5)cc4c3)cc(C)c2n1 [Compound 149, 6-[2-[1-(cyclopropylmethyl)-4-piperidyl]-7-fluoro-indazol-5-yl]-2,8-dimethyl-imidazo[1,2-b]pyridazine] | 0.1 to 1 µM | 0.1 to 1 µM | 0.1 to 1 µM | < 0.1 µM
Cc1c(O)c(-c2ccc3nn(C4CCNCC4)cc3n2)cc2cn(C)nc12 [Compound 109, 2,7-dimethyl-5-[2-(4-piperidyl)pyrazolo[4,3-b]pyridin-5-yl]indazol-6-ol] | 0.1 to 1 µM | 0.1 to 1 µM | 0.1 to 1 µM | < 0.1 µM
Cc1cn2nc(-c3cc(F)c4nn(C5CCN(CCF)CC5)cc4c3)cc(C)c2n1 [Compound 152] | 0.1 to 1 µM | 0.1 to 1 µM | 0.1 to 1 µM | < 0.1 µM
Cc1nc2c(F)cc(-c3cc(F)c4nn(C5CCNCC5)cc4c3)cc2o1 [Compound 136, 4-fluoro-6-[7-fluoro-2-(4-piperidyl)indazol-5-yl]-2-methyl-1,3-benzoxazole] | 0.1 to 1 µM | 0.1 to 1 µM | 0.1 to 1 µM | < 0.1 µM
Cc1cn2nc(-c3cc(F)c4nn(C5CCN(C)CC5)cc4c3)cc(C)c2n1 [Compound 150, 6-[7-fluoro-2-(1-methyl-4-piperidyl)indazol-5-yl]-2,8-dimethyl-imidazo[1,2-b]pyridazine] | 0.1 to 1 µM | 0.1 to 1 µM | 0.1 to 1 µM | < 0.1 µM
Cn1cc2cc(-c3cc(F)c4nn(C5CCNCC5)cc4c3)cc(C#N)c2n1 [Compound 130, 5-[7-fluoro-2-(4-piperidyl)indazol-5-yl]-2-methyl-indazole-7-carbonitrile] | 0.1 to 1 µM | 0.1 to 1 µM | 0.1 to 1 µM | < 0.1 µM
Cn1cc2cc(-c3cc(F)c4nn(C5CCNC6(CC6)C5)cc4c3)cc(F)c2n1 (centres unmarked) [Compound 108, 2-(4-azaspiro[2.5]octan-7-yl)-7-fluoro-5-(7-fluoro-2-methyl-indazol-5-yl)indazole] | 0.1 to 1 µM | 0.1 to 1 µM | 1 to 10 µM | 0.1 to 1 µM
Cc1cn2cc(-c3cc(F)c4nn(C5CCNCC5)cc4c3)cc(C)c2n1 [Compound 125, 5-(2,8-dimethylimidazo[1,2-a]pyridin-6-yl)-7-fluoro-2-(4-piperidyl)indazole] | 0.1 to 1 µM | 0.1 to 1 µM | 0.1 to 1 µM | < 0.1 µM
Cc1cn2nc(-n3cc4cc(C5CCNCC5)cc(F)c4n3)cc(C)c2n1 [Compound 120, 6-[7-fluoro-5-(4-piperidyl)indazol-2-yl]-2,8-dimethyl-imidazo[1,2-b]pyridazine] | > 10 µM | > 10 µM | 1 to 10 µM | 1 to 10 µM
Cc1cc(-n2cc3cc(N4CCNCC4)cc(F)c3n2)cc2cn(C)nc12 [Compound 117, 2-(2,7-dimethylindazol-5-yl)-7-fluoro-5-piperazin-1-yl-indazole] | > 10 µM | > 10 µM | 1 to 10 µM | 1 to 10 µM
Cc1cn2nc(-c3ccc4nn(C5CCNCC5)cc4c3)cc(C)c2n1 [Compound 192, 2,8-dimethyl-6-[2-(4-piperidyl)indazol-5-yl]imidazo[1,2-b]pyridazine] | 0.1 to 1 µM | 0.1 to 1 µM | 0.1 to 1 µM | < 0.1 µM
Cn1cc2cc(-c3ccc4nn(C5CCNCC5)cc4n3)c(O)c(F)c2n1 [Compound 107, 7-fluoro-2-methyl-5-[2-(4-piperidyl)pyrazolo [4,3-b]pyridin-5-yl]indazol-6-ol] | 0.1 to 1 µM | 0.1 to 1 µM | 0.1 to 1 µM | 0.1 to 1 µM
Cc1cn2nc(-c3cc(F)c4nn([C@@H]5CCNC[C@H]5F)cc4c3)cc(C)c2n1 [Compound 168, 6-(7-fluoro-2-((3R,4R)-3-fluoropiperidin-4-yl)-2H-indazol-5-yl)-2,8-dimethylimidazo [1,2-b]pyridazine] | 0.1 to 1 µM | 0.1 to 1 µM | 0.1 to 1 µM | < 0.1 µM
Cc1cn2nc(-c3cc(F)c4nn(C5CCNC6(CCC6)C5)cc4c3)cc(C)c2n1 (centres unmarked) [Compound 189, 6-[2-(5-azaspiro[3.5]nonan-8-yl)-7-fluoro-indazol-5-yl]-2,8-dimethyl-imidazo[1,2-b]pyridazine] | 0.1 to 1 µM | 0.1 to 1 µM | 0.1 to 1 µM | < 0.1 µM
Fc1cc(-c2ccc3ccncc3c2)cc2cn(C3CCNCC3)nc12 [Compound 158, 7-[7-fluoro-2-(4-piperidyl)indazol-5-yl]isoquinoline] | > 10 µM | > 10 µM | > 10 µM | 1 to 10 µM
Cc1nc2c(C)cc(-c3cc(F)c4nn(C5CCNCC5)cc4c3)cc2o1 [Compound 137, 6-[7-fluoro-2-(4-piperidyl)indazol-5-yl]-2,4-dimethyl-1,3-benzoxazole] | 0.1 to 1 µM | 0.1 to 1 µM | 0.1 to 1 µM | < 0.1 µM
Cc1cn2nc(-c3cc(F)c4nn([C@H]5CCNC6(CC6)C5)cc4c3)cc(C)c2n1 [Compound 172] | < 0.1 µM | < 0.1 µM | < 0.1 µM | < 0.1 µM
Cc1cn2nc(-c3cc(F)c4nn(CC5CCNCC5)cc4c3)cc(C)c2n1 [Compound 212, 6-[7-fluoro-2-(4-piperidylmethyl)indazol-5-yl]-2,8-dimethyl-imidazo[1,2-b]pyridazine] | 0.1 to 1 µM | 0.1 to 1 µM | 0.1 to 1 µM | –

— patent US20250082633A1, “COMPOUNDS AND METHODS FOR MODULATING SPLICING” (REMIX THERAPEUTICS INC., priority 2021, published 2025)
